The values below come from BindingDB's records for patent US20240116947 (Chiesi Farmaceutici, 2024).

This test deals with T1, TGF-beta receptor type-1 (Homo sapiens, UniProt P36897).
T1 sequence (P36897 whole entry): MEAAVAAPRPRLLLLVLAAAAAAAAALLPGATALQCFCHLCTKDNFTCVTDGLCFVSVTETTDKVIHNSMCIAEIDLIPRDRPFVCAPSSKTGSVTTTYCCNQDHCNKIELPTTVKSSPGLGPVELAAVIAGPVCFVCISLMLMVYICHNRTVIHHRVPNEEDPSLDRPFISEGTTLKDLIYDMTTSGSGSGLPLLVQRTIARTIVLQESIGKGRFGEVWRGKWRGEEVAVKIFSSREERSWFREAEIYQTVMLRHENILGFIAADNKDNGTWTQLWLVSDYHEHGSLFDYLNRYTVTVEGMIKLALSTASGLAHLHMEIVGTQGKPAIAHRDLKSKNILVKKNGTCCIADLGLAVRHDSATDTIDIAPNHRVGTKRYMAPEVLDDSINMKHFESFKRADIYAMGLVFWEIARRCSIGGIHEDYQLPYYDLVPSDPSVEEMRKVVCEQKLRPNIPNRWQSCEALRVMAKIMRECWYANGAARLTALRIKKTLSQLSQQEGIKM
In words: Enzymatic Activity Assay. The procedure: The enzymatic activity of compounds of the present invention was monitored measuring the formation of ADP using the ADP-GLO Kinases assay. Following the incubation of the purified enzyme, a substrate and ATP, the produced ADP was converted into ATP, which in turn was converted into light by Ultra-Glo Luciferase. The luminescent signal positively correlated with ADP amount and kinase activity. […] All reactions/incubations were performed at 25° C. Compound and ALK5 kinase were mixed and incubated for 15 mins. […] After an incubation of 150 min, the reaction was stopped, and ADP production detected with ADP-Glo kit according to manufacturer's indications. The assay was performed in 384-well format and was validated using a selection of reference compounds that was tested in 11 point concentration-response curve.

Consider `O=C(CCN(C1COC1)C1COC1)Nc1cc(N2CCOc3cnc(-c4cc(Cl)ccc4F)cc32)ccn1` [US20240116947, Example 21], for which the IC50 was less than 1 nM.

For orientation: IC50 means the point on the concentration scale where inhibition reaches its midpoint. Read a high IC50 as a need for much substance.
